# Assay results published in US4505914A, “Pharmaceutical for the treatment of sleep disorders” (Merckle GmbH, priority 1982, dated 1985).
# Where “and” joins values, the source holds several entries; their conditions need not be identical. Equal entries are not always repeated.
# Columns and labels:
# [1] = literature, in words; cited from earlier work
# [2] = literature, in words; cited from earlier work; remark: listed apart in the source
# male NMRJ mice [3] = experiment: Sleeping time prolongation under the influence of cinnarizine and flunarizine (ED50); format: in vivo, mouse; settings: for ED50: sleeping time increased by 50%; for Effect on the action of barbiturates: in words
# Text: (§1) A typical representative from the group of barbiturates with long action (phenobarbital), with short to average action (cyclobarbital-calcium) as well as ultra short action (hexobarbital) as well as a combination of two barbiturates (cyclobarbital-calcium+hexobarbital) was applied orally in graduated doses.
# Determination of the sleeping time prolongation under the influence of […]
# [4] = in words; cited from earlier work
# male NMRJ mice [5] = experiment: Determination of the oral ED50 of the barbiturates (sleep time); format: in vivo, mouse; settings: for ED50: Mus musculus, 0.5 h, oral, dose required for a 30-minute sleeping period
# Text: as §1
# Determination of the oral ED50 of
# the barbiturates using 10 male NMR.tau. mice/group
# male NMR.tau. mice [6] = experiment: Sleep duration, prolongation of sleeping time and ED50 under the influence of cinnarizine (Table 3); format: in vivo, mouse
# Text: as §1
# male NMR.tau. mice [7] = experiment: Onset of effect (beginning of the excitation stage); format: in vivo, mouse
# Experimental: (§2) As a criterium for the onset of the effect, the beginning of the excitation stage was measured. For the optimum effect, the beginning of the sleep phase was tested every 10 minutes by the tail and corneal reflex (according to Irvin) according to the following designations:
# (§3) Sleeping Time, Onset of Effect and Optium Effect under the influence of […]
# tail and corneal reflex = experiment: Optimum effect (tail and corneal reflex according to Irvin); format: in vivo, mouse; parameters: key to Optimum Reflex: 0: normal reaction; -1: slightly lessened; -2: clearly lessened; -3: highly lessened; -4: complete lack of reaction
# Experimental: as §2
# -4 = complete lack of reaction
# as §3
# [8] = cyclobarbital calcium 239 mg/kg alone (C)
# [9] = cinnarizine 0.50 + hexobarbital 710 mg/kg
# [10] = cinnarizine 0.75 + hexobarbital 710 mg/kg
# [11] = cinnarizine 1.0 + cyclobarbital calcium 239 mg/kg
# [12] = cinnarizine 1.0 + cyclobarbital calcium + hexobarbital (40 + 30) 225 mg/kg
# [13] = cinnarizine 1.00 + hexobarbital 710 mg/kg
# [14] = cinnarizine 2.5 + cyclobarbital calcium 239 mg/kg
# [15] = cinnarizine 2.5 + cyclobarbital calcium + hexobarbital (40 + 30) 225 mg/kg
# [16] = cinnarizine 5.0 + cyclobarbital calcium 239 mg/kg
# [17] = cinnarizine 5.0 + cyclobarbital calcium + hexobarbital (40 + 30) 225 mg/kg
# [18] = hexobarbital 710 mg/kg alone (C)
compound,measurement,setting,value
tocopherol,Effect on barbiturates,[1],increases the effect of barbiturates
CCCC(C)(COC(N)=O)COC(N)=O [Meprobamate],Effect on barbiturates,[1],pontentiating or enhancing effect on barbiturates
OCC(S)CS (stereo not shown) [Dimercaprol (BAL)],Decomposition of pentobarbital,[2],checks the decomposition of pentobarbital
Fc1ccc(C(c2ccc(F)cc2)N2CCN(C/C=C/c3ccccc3)CC2)cc1 [Flunarizine],Sleep Time,male NMRJ mice [3]; flunarizine 0.25 mg/kg + cyclobarbital-Ca 239 mg/kg,39.54 min
same,Sleep Time,"male NMRJ mice [3]; flunarizine 1.0 mg/kg + cyclobarbital-Ca 239 mg/kg, ***p <0.001",62.67 min
same,Sleep Time,male NMRJ mice [3]; flunarizine 1.0 mg/kg + hexobarbital 710 mg/kg,40.44 min
same,Sleep Time,"male NMRJ mice [3]; flunarizine 2.5 mg/kg + cyclobarbital-Ca 239 mg/kg, ***p <0.001",75.15 min
same,Sleep Time,male NMRJ mice [3]; flunarizine 2.5 mg/kg + cyclobarbital-Ca + hexobarbital (40 + 30) 225 mg/kg,33.45 min
same,Sleep Time,male NMRJ mice [3]; flunarizine 2.5 mg/kg + hexobarbital 710 mg/kg,45.17 min
same,Sleep Time,"male NMRJ mice [3]; flunarizine 5.0 mg/kg + hexobarbital 710 mg/kg, ***p <0.001",94.51 min
same,Sleep Time,"male NMRJ mice [3]; flunarizine 10.0 mg/kg + cyclobarbital-Ca + hexobarbital (40 + 30) 225 mg/kg, **p <0.01",56.49 min
same,Sleep Time,"male NMRJ mice [3]; flunarizine 15.0 mg/kg + cyclobarbital-Ca + hexobarbital (40 + 30) 225 mg/kg, ***p <0.001",65.12 min
same,ED50,"male NMRJ mice [3]; flunarizine with cyclobarbital-Ca 239 mg/kg, range (0.29-0.45)",0.38 mg/kg
same,ED50,"male NMRJ mice [3]; flunarizine with cyclobarbital-Ca + hexobarbital (40 + 30) 225 mg/kg, range (6.85-8.30)",7.52 mg/kg
same,ED50,"male NMRJ mice [3]; flunarizine with hexobarbital 710 mg/kg, probit analysis",2.94 mg/kg
same,Dosage to obtain an ED50 with the combination of both barbiturates,male NMRJ mice [3]; in comparison with the individual barbiturates,higher dosages
same,Effect on the action of barbiturates,male NMRJ mice [3],potentiating or enhancing effect
same,Potency for cyclobarbital-calcium,male NMRJ mice [3]; with cyclobarbital-calcium,highest potency
same,Antihistaminic properties,[4],only weak antihistaminic properties
CCC1(C2=CCCCC2)C(=O)NC(=O)NC1=O [Cyclobarbital-Ca],Sleep Time,male NMRJ mice [5]; 200 mg/kg oral,14.01 min
same,Sleep Time,male NMRJ mice [5]; 250 mg/kg oral,34.38 min
same,Sleep Time,male NMRJ mice [5]; 300 mg/kg oral,90 min
same,"Sleep Time, individual animals","male NMRJ mice [5]; 300 mg/kg oral, footnote 1",90 min and 60.5 min and 53.3 min
same,ED50,male NMRJ mice [5],239 mg/kg
same,Sleep Time,"male NMRJ mice [3]; cyclobarbital-Ca 239 mg/kg alone, cinnarizine series",27.45 min
same,Sleep Time,"male NMRJ mice [3]; cyclobarbital-Ca 239 mg/kg alone, flunarizine series",32.03 min
same,Sleep Time,male NMR.tau. mice [6]; [8],24.64 min
same,Sleep Time % of control,male NMR.tau. mice [6]; [8],100.0%
same,Onset p.a. % of control,male NMR.tau. mice [7]; [8],100.0%
same,Onset x,male NMR.tau. mice [7]; [8],4.27 min
same,"Effect on onset, in words","male NMR.tau. mice [7]; mouse, in vivo",marked effect
same,Optimum % of control,tail and corneal reflex; [8],100.0%
same,Optimum Min.,tail and corneal reflex; [8],10 min
"C(=C\c1ccccc1)/CN1CCN(C(c2ccccc2)c2ccccc2)CC1 [Cinnarizine, 1-benzhydryl-4-trans-cinnamylpiperazine]",Sleep Time,male NMRJ mice [3]; cinnarizine 0.5 mg/kg + hexobarbital 710 mg/kg,35.37 min
same,Sleep Time,male NMRJ mice [3]; cinnarizine 1.0 mg/kg + cyclobarbital-Ca 239 mg/kg,24.34 min
same,Sleep Time,male NMRJ mice [3]; cinnarizine 1.0 mg/kg + cyclobarbital-Ca + hexobarbital (40 + 30) 225 mg/kg,31.09 min
same,Sleep Time,"male NMRJ mice [3]; cinnarizine 1.0 mg/kg + hexobarbital 710 mg/kg, **p <0.01",65.58 min
same,Sleep Time,male NMRJ mice [3]; cinnarizine 1 mg/kg + phenobarbital 256 mg/kg,25.78 min
same,Sleep Time,"male NMRJ mice [3]; cinnarizine 2.5 mg/kg + cyclobarbital-Ca 239 mg/kg, *p <0.05",41.43 min
same,Sleep Time,male NMRJ mice [3]; cinnarizine 2.5 mg/kg + cyclobarbital-Ca + hexobarbital (40 + 30) 225 mg/kg,37.92 min
same,Sleep Time,"male NMRJ mice [3]; cinnarizine 5.0 mg/kg + cyclobarbital-Ca 239 mg/kg, **p <0.01",49.99 min
same,Sleep Time,"male NMRJ mice [3]; cinnarizine 5.0 mg/kg + cyclobarbital-Ca + hexobarbital (40 + 30) 225 mg/kg, *p <0.05",53.22 min
same,Sleep Time,male NMRJ mice [3]; cinnarizine 5 mg/kg + phenobarbital 256 mg/kg,32.85 min
same,Sleep Time,"male NMRJ mice [3]; cinnarizine 10 mg/kg + phenobarbital 256 mg/kg, *p <0.05",43.55 min
same,Sleep Time,"male NMRJ mice [3]; cinnarizine […] + hexobarbital 710 mg/kg, **p <0.01",43.93 min
same,Effect on the action of barbiturates,male NMRJ mice [3],potentiating or enhancing effect
same,Sleep Time,male NMR.tau. mice [6]; [9],40.66 min
same,Sleep Time % of control,male NMR.tau. mice [6]; [9],113.4%
same,Sleep Time,male NMR.tau. mice [6]; [10],42.38 min
same,Sleep Time % of control,male NMR.tau. mice [6]; [10],118.2%
same,Sleep Time,male NMR.tau. mice [6]; [11],26.21 min
same,Sleep Time % of control,male NMR.tau. mice [6]; [11],106.4%
same,Sleep Time,male NMR.tau. mice [6]; [12],32.42 min
same,Sleep Time % of control,male NMR.tau. mice [6]; [12],92.6%
same,Sleep Time,male NMR.tau. mice [6]; [13],76.14 min
same,Sleep Time % of control,male NMR.tau. mice [6]; [13],212.3%
same,Sleep Time,male NMR.tau. mice [6]; [14],31.08 min
same,Sleep Time % of control,male NMR.tau. mice [6]; [14],126.1%
same,Sleep Time,male NMR.tau. mice [6]; [15],38.65 min
same,Sleep Time % of control,male NMR.tau. mice [6]; [15],110.4%
same,Sleep Time,male NMR.tau. mice [6]; [16],42.49 min
same,Sleep Time % of control,male NMR.tau. mice [6]; [16],172.4%
same,Sleep Time,male NMR.tau. mice [6]; [17],54.82 min
same,Sleep Time % of control,male NMR.tau. mice [6]; [17],156.6%
same,Onset p.a. % of control,male NMR.tau. mice [7]; [9],86.2%
same,Onset x,male NMR.tau. mice [7]; [9],2.49 min
same,Onset p.a. % of control,male NMR.tau. mice [7]; [10],76.8%
same,Onset x,male NMR.tau. mice [7]; [10],2.22 min
same,Onset p.a. % of control,male NMR.tau. mice [7]; [11],51.3%
same,Onset x,male NMR.tau. mice [7]; [11],2.19 min
same,Onset p.a. % of control,male NMR.tau. mice [7]; [12],94.8%
same,Onset x,male NMR.tau. mice [7]; [12],1.09 min
same,Onset p.a. % of control,male NMR.tau. mice [7]; [13],55.0%
same,Onset x,male NMR.tau. mice [7]; [13],1.59 min
same,Onset p.a. % of control,male NMR.tau. mice [7]; [14],54.1%
same,Onset x,male NMR.tau. mice [7]; [14],2.31 min
same,Onset p.a. % of control,male NMR.tau. mice [7]; [15],102.6%
same,Onset x,male NMR.tau. mice [7]; [15],1.18 min
same,Onset p.a. % of control,male NMR.tau. mice [7]; [16],59.5%
same,Onset x,male NMR.tau. mice [7]; [16],2.54 min
same,Onset p.a. % of control,male NMR.tau. mice [7]; [17],102.6%
same,Onset x,male NMR.tau. mice [7]; [17],1.18 min
same,Optimum % of control,tail and corneal reflex; [9],278.2-336.0%
same,Optimum Min.,tail and corneal reflex; [9],10 to 30 min
same,Optimum Reflex,tail and corneal reflex; [9],-3
same,Optimum Min.,tail and corneal reflex; [10],10 to 20 min
same,Optimum Reflex,tail and corneal reflex; [10],-3
same,Optimum % of control,tail and corneal reflex; [11],166.7%
same,Optimum Min.,tail and corneal reflex; [11],10 min
same,Optimum Reflex,tail and corneal reflex; [11],-1
same,Optimum % of control,tail and corneal reflex; [12],156.3-183.3%
same,Optimum Min.,tail and corneal reflex; [12],10 to 20 min
same,Optimum Reflex,tail and corneal reflex; [12],-2
same,Optimum % of control,tail and corneal reflex; [13],300.8-407.0%
same,Optimum Min.,tail and corneal reflex; [13],10 to 30 min
same,Optimum Reflex,tail and corneal reflex; [13],-4
same,Optimum % of control,tail and corneal reflex; [14],350.0%
same,Optimum Min.,tail and corneal reflex; [14],10 to 30 min
same,Optimum Reflex,tail and corneal reflex; [14],-1
same,Optimum % of control,tail and corneal reflex; [15],138.8-177.5%
same,Optimum Min.,tail and corneal reflex; [15],10 to 20 min
same,Optimum Reflex,tail and corneal reflex; [15],-2
same,Optimum % of control,tail and corneal reflex; [16],350.0%
same,Optimum Min.,tail and corneal reflex; [16],10 min
same,Optimum Reflex,tail and corneal reflex; [16],-2
same,Optimum % of control,tail and corneal reflex; [17],175.0-233.0%
same,Optimum Min.,tail and corneal reflex; [17],10 to 40 min
CN1C(=O)NC(=O)C(C)(C2=CCCCC2)C1=O (stereo not shown) [Hexobarbital],Sleep Time,male NMRJ mice [5]; 250 mg/kg oral,3.03 min
same,Sleep Time,male NMRJ mice [5]; 500 mg/kg oral,16.52 min
same,Sleep Time,male NMRJ mice [5]; 750 mg/kg oral,32.53 min
same,Sleep Time,male NMRJ mice [5]; 1000 mg/kg oral,56.08 min
same,ED50,male NMRJ mice [5],710 mg/kg
same,Sleep Time,"male NMRJ mice [3]; hexobarbital 710 mg/kg alone, cinnarizine series",32.74 min
same,Sleep Time,"male NMRJ mice [3]; hexobarbital 710 mg/kg alone, flunarizine series",38.78 min
same,Sleep Time,male NMR.tau. mice [6]; [18],35.86 min
same,Sleep Time % of control,male NMR.tau. mice [6]; [18],100.0%
same,Onset p.a. % of control,male NMR.tau. mice [7]; [18],100.0%
same,Onset x,male NMR.tau. mice [7]; [18],2.89 min
same,Optimum % of control,tail and corneal reflex; [18],100.0%
same,Optimum Min.,tail and corneal reflex; [18],10 to 20 min
same,Optimum Reflex,tail and corneal reflex; [18],-1
CCC1(c2ccccc2)C(=O)NC(=O)NC1=O [Phenobarbital],Sleep Time,male NMRJ mice [5]; 200 mg/kg oral,4.29 min
same,Sleep Time,male NMRJ mice [5]; 250 mg/kg oral,27.52 min
same,Sleep Time,male NMRJ mice [5]; 300 mg/kg oral,49.06 min
same,Sleep Time,male NMRJ mice [5]; 400 mg/kg oral,49.28 min
same,ED50,male NMRJ mice [5],256 mg/kg
same,Sleep Time,"male NMRJ mice [3]; phenobarbital 256 mg/kg alone, cinnarizine series",22.34 min
